Experimental data published in patent US6680367B1, “Fluorescent CRF receptor-binding peptides” (Advanced Bioconcept Company, priority 1995, dated 2004).
Peptide text beside a SMILES is read from it. GABA = NCCCC(=O)O

Key:
Assay type in all cases: binding
CRF1, CRF2 = experiment: Displacement of 125I labeled CRF from CRF receptor subtypes, recombinant cells; settings: Receptor CRF1, CRF2 (one value printed for both), displacing radiolabeled CRF
Protocol: (§1) Determination of IC50 for labeled peptides. […] In order to fully dissolve the peptide, the sample was reconstituted in 20 uL DMSO, vortexing well to ensure that all powder was completely dissolved, and then adding 0.48 mL of double distilled water. The stock solution was aliquoted to avoid repeated freezing and thawing of peptide. Unused aliquots were stored at −20° C. (protected from light) for maximum 24 hr.
(§2) Data for native and labeled peptides were analyzed by non-linear curve fitting. This included statistical evaluation of fit and calculation of IC50 and Ki values.

CRF1 = biological target: T1, CRF1 (Homo sapiens, UniProt P34998); experiment: Displacement of 125I labeled sauvagine from CRF1, recombinant cells
T1 construct: expressed in transfected cells
T1 sequence (P34998 24-415): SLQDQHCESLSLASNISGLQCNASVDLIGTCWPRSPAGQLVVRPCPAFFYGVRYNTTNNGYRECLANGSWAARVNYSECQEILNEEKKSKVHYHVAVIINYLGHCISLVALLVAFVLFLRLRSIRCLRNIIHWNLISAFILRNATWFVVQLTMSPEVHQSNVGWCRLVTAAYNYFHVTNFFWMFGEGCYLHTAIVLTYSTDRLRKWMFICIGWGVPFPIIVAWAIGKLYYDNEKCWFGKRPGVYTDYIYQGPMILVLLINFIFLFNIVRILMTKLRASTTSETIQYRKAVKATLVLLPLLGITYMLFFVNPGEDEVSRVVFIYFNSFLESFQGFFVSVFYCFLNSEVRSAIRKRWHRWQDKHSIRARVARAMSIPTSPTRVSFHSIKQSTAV
Protocol: as §1, §2

CRF2 = biological target: T2, CRF2 (Homo sapiens, UniProt Q13324); experiment: Displacement of 125I labeled sauvagine from CRF2, recombinant cells
T2 construct: expressed in transfected cells
T2 sequence (Q13324 1-411): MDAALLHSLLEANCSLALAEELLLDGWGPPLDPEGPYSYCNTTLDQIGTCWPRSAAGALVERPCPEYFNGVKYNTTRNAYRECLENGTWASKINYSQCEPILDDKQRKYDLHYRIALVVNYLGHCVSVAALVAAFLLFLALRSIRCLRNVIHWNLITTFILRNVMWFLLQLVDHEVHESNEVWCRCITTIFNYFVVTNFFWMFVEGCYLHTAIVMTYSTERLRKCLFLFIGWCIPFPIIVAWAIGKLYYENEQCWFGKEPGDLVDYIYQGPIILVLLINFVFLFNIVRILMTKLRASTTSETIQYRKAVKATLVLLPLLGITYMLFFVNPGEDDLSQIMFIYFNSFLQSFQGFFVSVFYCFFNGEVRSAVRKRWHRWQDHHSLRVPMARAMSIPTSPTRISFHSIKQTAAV
Protocol: as §1, §2

Compound	Ki (CRF1, CRF2) [nM]	Ki (CRF1) [nM]	Ki (CRF2) [nM]
CC[C@H](C)[C@H](NC(=O)[C@@H](NC(=O)[C@H](CC(=O)O)NC(=O)[C@H](CC(C)C)NC(=O)[C@H](CC(C)C)NC(=O)[C@H](CC(C)C)NC(=O)[C@H](CCCNC(=N)N)NC(=O)[C@H](CC(N)=O)NC(=O)[C@H](CC(N)=O)NC(=O)[C@H](C)NC(=O)[C@H](C)NC(=O)[C@H](CCC(N)=O)NC(=O)[C@H](CCC(N)=O)NC(=O)[C@H](CCCCN)NC(=O)[C@H](CCC(=O)O)NC(=O)[C@H](CCCCN)NC(=O)[C@H](CCC(=O)O)NC(=O)[C@H](CCC(N)=O)NC(=O)[C@H](CCCCN)NC(=O)[C@H](CCC(=O)O)NC(=O)[C@@H](NC(=O)[C@H](CCC(=O)O)NC(=O)[C@@H](NC(=O)[C@H](CCSC)NC(=O)[C@H](CCCCN)NC(=O)[C@H](CCCNC(=N)N)NC(=O)[C@H](CC(C)C)NC(=O)[C@H](CC(C)C)NC(=O)[C@H](CCC(=O)O)NC(=O)[C@H](CC(C)C)NC(=O)[C@H](CO)NC(=O)[C@H](CC(C)C)NC(=O)[C@H](CC(=O)O)NC(=O)[C@@H](NC(=O)[C@H](CO)NC(=O)[C@@H](NC(=O)[C@@H]1CCCN1C(=O)[C@@H]1CCCN1C(=O)CNC(=O)[C@@H]1CCC(=O)N1)[C@@H](C)CC)[C@@H](C)CC)[C@@H](C)CC)[C@@H](C)CC)[C@@H](C)O)C(N)=O [Sauvagine, sauvagine]	7.9		
CC[C@H](C)[C@H](NC(=O)[C@H](CO)NC(=O)[C@H](CC(C)C)NC(=O)[C@H](CO)NC(=O)[C@@H]1CCCN1C(=O)[C@H](CC(N)=O)NC(=O)[C@@H](N)CC(=O)O)C(=O)N[C@@H](CC(=O)O)C(=O)N[C@@H](CC(C)C)C(=O)N[C@H](C(=O)N[C@@H](Cc1ccccc1)C(=O)N[C@@H](Cc1cnc[nH]1)C(=O)N[C@@H](CC(C)C)C(=O)N[C@@H](CC(C)C)C(=O)N[C@@H](CCCNC(=N)N)C(=O)N[C@H](C(=O)N[C@@H](CC(C)C)C(=O)N[C@@H](CC(C)C)C(=O)N[C@@H](CCC(=O)O)C(=O)N[C@@H](CC(C)C)C(=O)N[C@@H](C)C(=O)N[C@@H](CCCNC(=N)N)C(=O)N[C@H](C(=O)N[C@@H](CCC(N)=O)C(=O)N[C@@H](CO)C(=O)N[C@@H](CCC(N)=O)C(=O)N[C@@H](CCCNC(=N)N)C(=O)N[C@@H](CCC(=O)O)C(=O)N[C@@H](CCCNC(=N)N)C(=O)N[C@@H](C)C(=O)N[C@@H](CCC(=O)O)C(=O)N[C@@H](CCC(N)=O)C(=O)N[C@@H](CC(N)=O)C(=O)N[C@@H](CCCNC(=N)N)C(=O)N[C@H](C(=O)N[C@H](C(=O)N[C@@H](Cc1ccccc1)C(=O)N[C@@H](CC(=O)O)C(=O)N[C@@H](CO)C(=O)N[C@H](C(N)=O)C(C)C)[C@@H](C)CC)[C@@H](C)CC)[C@@H](C)O)[C@@H](C)O)[C@@H](C)O [urocortin] (H-DNPSLSIDLTFHLLRTLLELARTQSQRERAEQNRIIFDSV-NH2)		0.64	4.3
fluoresceinyl-sauvagine ({Fluorescein-GABA}-GPPISIDLSLELLRKMIEIEKQEKEKQQAANNRLLLDTI-NH2; listed as Xenopus tropicalis) [Fluo*-sauvagine]	3.8		
